This passage reports IC50 results from patent US9963464B2, “Macrocyclic compounds” (Bayer Pharma Aktiengesellschaft, priority 2014, dated 2018).

One experiment addresses T1, CDK2/CycE (Homo sapiens, UniProt P24941).
T1 construct: GST; purchased ProQinase GmbH (Freiburg, Germany); host or cells: insect cells (Sf9)
Kind of experiment: CDK2/CycE kinase assay (TR-FRET, Method 2a). Type of experiment: biochemical. As to conditions: 10 μM ATP. The source says: 2a. CDK2/CycE Kinase Assay:
CDK2/CycE-inhibitory activity of compounds of the present invention was quantified employing the CDK2/CycE TR-FRET assay as described in the following paragraphs:
Recombinant fusion proteins of GST and human CDK2 and of GST and human CycE, expressed in insect cells (Sf9) and purified by Glutathion-Sepharose affinity chromatography, were purchased from ProQinase GmbH (Freiburg, Germany). As substrate for the kinase reaction biotinylated peptide biotin-Ttds-YISPLKSPYKISEG (C-terminus in amid form) was used which can be purchased e.g. from the company JERINI Peptide Technologies (Berlin, Germany).
For the assay 50 nl of a 100 fold concentrated solution of the test compound in DMSO was pipetted into a black low volume 384 well microtiter plate (Greiner Bio-One, Frickenhausen, Germany), 2 μl of a solution of CDK2/CycE in aqueous assay buffer [50 mM Tris/HCl pH 8.0, 10 mM MgCl2, 1.0 mM dithiothreitol, 0.1 mM sodium ortho-vanadate, 0.01% (v/v) Nonidet-P40 (Sigma)] were added and the mixture was incubated for 15 min at 22° C. to allow pre-binding of the test compounds to the enzyme before the start of the kinase reaction. […] The concentration of CDK2/CycE was adjusted depending of the activity of the enzyme lot and was chosen appropriate to have the assay in the linear range, typical concentrations were in the range of 130 ng/mL. The reaction was stopped by the addition of 5 μl of a solution of TR-FRET detection reagents (0.2 μM streptavidine-XL665 [Cisbio Bioassays, Codolet, France] and 1 nM anti-RB(pSer807/pSer811)-antibody from BD Pharmingen [#558389] and 1.2 nM LANCE EU-W1024 labeled anti-mouse IgG antibody [Perkin-Elmer, product no. AD0077]) in an aqueous EDTA-solution (100 mM EDTA, 0.2% (w/v) bovine serum albumin in 100 mM HEPES pH 7.5).
The resulting mixture was incubated 1 h at 22° C. to allow the formation of complex between the phosphorylated biotinylated peptide and the detection reagents. Subsequently the amount of phosphorylated substrate was evaluated by measurement of the resonance energy transfer from the Eu-chelate to the streptavidine-XL. Therefore, the fluorescence emissions at 620 nm and 665 nm after excitation at 350 nm was measured in a TR-FRET reader, e.g. a Rubystar (BMG Labtechnologies, Offenburg, Germany) or a Viewlux (Perkin-Elmer). The ratio of the emissions at 665 nm and at […] was taken as the measure for the amount of phosphorylated substrate. The data were normalised (enzyme reaction without inhibitor=0% inhibition, all other assay components but no enzyme=100% inhibition).

For a further experiment, the system named is HeLa-MaTu-ADR cells. Kind of experiment: Proliferation assay HeLa-MaTu-ADR. As to conditions: 4 days, crystal violet, read-out: Inhibition of HeLa-MaTu-ADR cell proliferation IC50. Type of experiment: cell-based, human. The method, then: (§1) Cultivated tumour cells (HeLa, human cervical tumour cells, ATCC CCL-2; NCI-H460, human non-small cell lung carcinoma cells, ATCC HTB-177; A2780, human ovarian carcinoma cells, ECACC #93112519; DU 145, hormone-independent human prostate carcinoma cells, ATCC HTB-81; HeLa-MaTu-ADR, multidrug-resistant human cervical carcinoma cells, EPO-GmbH Berlin; Caco-2, human colorectal carcinoma cells, ATCC HTB-37; B16F10, mouse melanoma cells, ATCC CRL-6475) were plated at a density of 5,000 cells/well (DU145, HeLa-MaTu-ADR), 3,000 cells/well (NCI-H460, HeLa), 2,500 cells/well (A2780), 1,500 cells/well (Caco-2), or 1,000 cells/well (B16F10) in a 96-well multititer plate in 200 μL of their respective growth medium supplemented 10% fetal calf serum. After 24 hours, the cells of one plate (zero-point plate) were stained with crystal violet (see below), while the medium of the other plates was replaced by fresh culture medium (200 μl), to which the test substances were added in various concentrations (0 μM, as well as in the range of 0.001-10 μM). The cells were incubated for 4 days in the presence of test substances. Cell proliferation was determined by staining the cells with crystal violet: the cells were fixed by adding 20 μl/measuring point of an 11% glutaric aldehyde solution for 15 minutes at room temperature. After three washing cycles of the fixed cells with water, the plates were dried at room temperature. The cells were stained by adding 100 μl/measuring point of a 0.1% crystal violet solution (pH 3.0). After three washing cycles of the stained cells with water, the plates were dried at room temperature. The dye was dissolved by adding 100 μl/measuring point of a 10% acetic acid solution. The extinction was determined by photometry at a wavelength of 595 nm. The change of cell number, in percent, was calculated by normalization of the measured values to the extinction values of the zero-point plate (=0%) and the extinction of the untreated (0 μm) cells (=100%). The IC50 values (inhibitory concentration at 50% of maximal effect) were determined by means of a 4 parameter fit. Non-adherent MOLM-13 human acute myeloid leukemia cells (DSMZ ACC 554) were seeded at a density of 5,000 cells/well in a 96-well multititer plate in 100 μL of growth medium supplemented 10% fetal calf serum. After 24 hours, cell viability of one plate (zero-point plate) was determined with the Cell Titre-Glo Luminescent Cell Viability Assay (Promega), while 50 μL of test compound containing medium was added to the wells of the other plates (final concentrations in the range of 0.001-1 μM and DMSO controls). Cell viability was assessed after 72-hour exposure with the Cell Titre-Glo Luminescent Cell Viability Assay (Promega). IC50 values (inhibitory concentration at 50% of maximal effect) were determined by means of a 4 parameter fit on measurement data which were normalized to vehicle (DMSO) treated cells (=100%) and measurement readings taken immediately before compound exposure (=0%).

A further experiment relates to Caco-2 cells. Kind of experiment: Proliferation assay Caco-2. It counts as cell-based, human. As to conditions: 4 days, crystal violet, read-out: Inhibition of Caco-2 cell proliferation IC50. As for the experimental part:
as §1

Where two headings read alike, the source gives them in different places.

Consider `NCCS(=O)(=O)Cc1cc2nc(c1)OCCCOc1cc(F)ccc1-c1cc(ncc1F)N2` [Example 26, 2-({[15,19-difluoro-3,4-dihydro-2H,11H-10,6-(azeno)-12,16-(metheno)-1,5,11,13-benzodioxadiazacyclooctadecin-8-yl]methyl}sulfonyl)ethanamine], for which the IC50 is 10 nM at CDK2/CycE; 298 nM in the experiment on HeLa-MaTu-ADR cells (Homo sapiens, 96 h); 329 nM with Caco-2 cells (Homo sapiens, Caco-2, 96 h).
On to “({[15,19-difluoro-3,4-dihydro-2H,11H-10,6-(azeno)-12,16-(metheno)-1,5,11,13-benzodioxadiazacyclooctadecin-8-yl]methyl}sulfonyl)acetic acid [Example 27]”, for which the IC50 stood at 2.3 nM against CDK2/CycE, 1280 nM in the experiment on HeLa-MaTu-ADR cells and 2100 nM in the experiment with Caco-2 cells.
